Source: the supplement of paper PMC10307832

Legend:
Assay in all cases: relative viability (nuclei count vs DMSO), 5 days (fraction); higher = more cells survive
[1] = compound: CC1=C(C=C(C=C1)NC(=O)C2=CC(=CC=C2)C(C)(C)C#N)NC3=CC4=C(C=C3)N=CN(C4=O)C [AZ628] + CC1(C)CCC(c2ccc(Cl)cc2)=C(CN2CCN(c3ccc(C(=O)NS(=O)(=O)c4ccc(N[C@H](CCN5CCOCC5)CSc5ccccc5)c(S(=O)(=O)C(F)(F)F)c4)cc3)CC2)C1 [Navitoclax] (partner 0.5 µM)
Method in brief: (§1)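 Lung cancer cell lines were pin-tool dosed in 1536-well plates on the day after seeding, with either a lone drug or a fixed anchor-drug dose plus five library-drug doses (not always all listed) in √10 steps. Nuclei were counted on 4× images after 5 days. Relative viability is the ratio of treated-well to vehicle-well nuclei counts, with each value a median of duplicate plates.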

[2] = compound: C[As](C)SC[C@H](NC(=O)CC[C@H](N)C(=O)O)C(=O)NCC(=O)O [Darinaparsin] + NC(=O)Nc1cc(-c2cccc(F)c2)sc1C(=O)N[C@H]1CCCNC1 [AZD7762] (partner 0.2 µM)
Method in brief: as §1

[3] = compound: C[As](C)SC[C@H](NC(=O)CC[C@H](N)C(=O)O)C(=O)NCC(=O)O [Darinaparsin] + Nc1ncn([C@H]2C[C@H](O)[C@@H](CO)O2)c(=O)n1 [Decitabine] (partner 2 µM)
Method in brief: as §1

[4] = compound: C[As](C)SC[C@H](NC(=O)CC[C@H](N)C(=O)O)C(=O)NCC(=O)O [Darinaparsin] + O=C(CCCCCCC(=O)Nc1ccccc1)NO [Vorinostat] (partner 1 µM)
Method in brief: as §1

Row | Cell Line | relative viability ([1]; first compound 0.08 µM) | relative viability ([1]; first compound 0.253 µM) | relative viability ([1]; first compound 0.8 µM) | relative viability ([1]; first compound 2.53 µM) | relative viability ([1]; first compound 8 µM) | relative viability ([2]; first compound 0.08 µM) | relative viability ([2]; first compound 0.8 µM) | relative viability ([2]; first compound 2.53 µM) | relative viability ([2]; first compound 8 µM) | relative viability ([3]; first compound 0.08 µM) | relative viability ([3]; first compound 0.8 µM) | relative viability ([3]; first compound 2.53 µM) | relative viability ([3]; first compound 8 µM) | relative viability ([4]; first compound 0.08 µM) | relative viability ([4]; first compound 0.8 µM) | relative viability ([4]; first compound 2.53 µM) | relative viability ([4]; first compound 8 µM)
1 | BEN | 0.0576 | 0.0642 | 0.0651 | 0.0689 | 0.0471 | 0.691 | 0.729 | 0.648 | 0.797 | 0.724 | 0.72 | 0.812 | 0.811 | 0.572 | 0.602 | 0.688 | 0.65
2 | NCI-H1651 | 1.07 | 1.02 | 1.2 | 1.25 | 1.1 | 0.507 | 0.43 | 0.361 | 0.553 | 0.589 | 0.66 | 0.596 | 0.665 | 0.523 | 0.558 | 0.58 | 0.571
3 | EKVX | 0.982 | 0.925 | 1.11 | 0.966 | 0.589 | 0.817 | 0.739 | 0.726 | 0.82 | 0.339 | 0.323 | 0.382 | 0.314 | 0.787 | 0.653 | 0.764 | 0.737
4 | HCC-15 | 0.676 | 0.619 | 0.54 | 0.474 | 0.312 | 1.48 | 1.32 | 1.11 | 1.12 | 0.727 | 0.565 | 0.643 | 0.722 | 0.911 | 0.839 | 0.851 | 0.901
5 | ChaGo-K-1 | 1.1 |  | 0.751 | 1.1 | 1.14 | 0.979 | 0.931 | 0.789 | 1.03 | 0.464 | 0.499 | 0.506 | 0.577 | 0.848 | 0.788 | 0.754 | 0.769
6 | RERF-LC-KJ | 1.04 | 0.816 | 0.755 | 0.861 | 0.745 | 0.92 | 0.989 | 0.865 | 1.19 | 0.728 | 0.68 | 0.687 | 0.561 | 0.686 | 0.742 | 0.563 | 0.723
7 | NCI-H2087 | 0.746 | 0.676 | 0.64 | 0.669 | 0.267 | 1.41 | 1.45 | 1.39 | 1.75 | 0.322 | 0.286 | 0.28 | 0.282 | 0.932 | 0.839 | 0.892 | 1.14
